Earlier results, collected in patent USRE43580E1, “Nasal calcitonin formulations” (Unigene Laboratories, Inc., priority 2000, dated 2012).

Assays:
[1] = preservative in the nasal formulation
rhinitis medicamentosa = settings: healthy volunteers, decongestant nasal spray containing the preservative
nasal mucosa = settings: in vivo
[2] = system: respiratory mucosal tissue; settings: exposed in vitro
[3] = system: mucocilary transport velocity; settings: ex vivo frog palate

Rhinitis medicamentosa (rhinitis medicamentosa): aggravate rhintis rhinitis medicamentosa
Morphology of respiratory mucosal tissue [2]: severe morphological alterations
Mucocilary transport velocity [3]: significant slowing
Substance: benzalkonium chloride
Absorption of salmon calcitonin [1]: enhance the absorption of salmon calcitonin
Effect on nasal mucosa (nasal mucosa): adverse effect on nasal mucosa
